How the values were obtained:
Test in all cases: relative viability (nuclei count vs DMSO), 5 days (fraction); higher = more cells survive
NCI-H1703 = system: NCI-H1703
How it was run: (§1)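 Lung cancer cell lines in 1536-well plates got either a single drug or a fixed anchor-drug dose together with five library-drug doses (not always all listed) in √10 steps, by pin tool, on the day after seeding. Nuclei were counted after 5 days, and relative viability is the treated-to-vehicle ratio of nuclei counts. Values are medians of duplicate plates.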

IA-LM = system: IA-LM
How it was run: as §1

EBC-1 = system: EBC-1
How it was run: as §1

A549 = system: A549
How it was run: as §1

SW 1573 = system: SW 1573
How it was run: as §1

Calu-6 = system: Calu-6
How it was run: as §1

COR-L23 = system: COR-L23
How it was run: as §1

ChaGo-K-1 = system: ChaGo-K-1
How it was run: as §1

NCI-H1651 = system: NCI-H1651
How it was run: as §1

NCI-H1437 = system: NCI-H1437
How it was run: as §1

ABC-1 = system: ABC-1
How it was run: as §1

NCI-H1299 = system: NCI-H1299
How it was run: as §1

SK-MES-1 = system: SK-MES-1
How it was run: as §1

Molecule `Cc1sc2c(c1C)C(c1ccc(Cl)cc1)=N[C@@H](CC(=O)OC(C)(C)C)c1nnc(C)n1-2` [JQ1] + C[C@@H](Oc1cc(-c2cnn(C3CCNCC3)c2)cnc1N)c1c(Cl)ccc(F)c1Cl [Crizotinib] (partner 1 µM) has a relative viability (NCI-H1703; first compound 0.04 µM) of 0.611, a relative viability (NCI-H1703; first compound 0.1265 µM) of 0.438 and a relative viability (NCI-H1703; first compound 0.4 µM) of 0.464. The relative viability (NCI-H1703; first compound 1.265 µM) was 0.286, the relative viability (NCI-H1703; first compound 4 µM) was 0.302 and the relative viability (IA-LM; first compound 0.04 µM) was 0.672. For the same molecule, the relative viability (IA-LM; first compound 0.1265 µM) was 0.3, the relative viability (IA-LM; first compound 0.4 µM) was 0.147 and the relative viability (IA-LM; first compound 1.265 µM) was 0.101. It also gave a relative viability (IA-LM; first compound 4 µM) of 0.108, a relative viability (EBC-1; first compound 0.04 µM) of 0.214 and a relative viability (EBC-1; first compound 0.1265 µM) of 0.187. The relative viability (EBC-1; first compound 0.4 µM) was 0.154, the relative viability (EBC-1; first compound 1.265 µM) was 0.105 and the relative viability (EBC-1; first compound 4 µM) was 0.13. For the same molecule, the relative viability (A549; first compound 0.04 µM) was 0.766, the relative viability (A549; first compound 0.1265 µM) was 0.521 and the relative viability (A549; first compound 0.4 µM) was 0.558. For the same molecule, the relative viability (A549; first compound 1.265 µM) was 0.233, the relative viability (A549; first compound 4 µM) was 0.125 and the relative viability (SW 1573; first compound 0.04 µM) was 0.633. It also gave a relative viability (SW 1573; first compound 0.1265 µM) of 0.741, a relative viability (SW 1573; first compound 0.4 µM) of 0.678 and a relative viability (SW 1573; first compound 1.265 µM) of 0.48. It also gave a relative viability (SW 1573; first compound 4 µM) of 0.385, a relative viability (Calu-6; first compound 0.04 µM) of 0.737 and a relative viability (Calu-6; first compound 0.1265 µM) of 0.546. It also gave a relative viability (Calu-6; first compound 0.4 µM) of 0.62, a relative viability (Calu-6; first compound 1.265 µM) of 0.342 and a relative viability (Calu-6; first compound 4 µM) of 0.183. For the same molecule, the relative viability (COR-L23; first compound 0.04 µM) was 0.608, the relative viability (COR-L23; first compound 0.1265 µM) was 0.381 and the relative viability (COR-L23; first compound 0.4 µM) was 0.46. The relative viability (COR-L23; first compound 1.265 µM) was 0.248, the relative viability (COR-L23; first compound 4 µM) was 0.12 and the relative viability (ChaGo-K-1; first compound 0.04 µM) was 1.04. For the same molecule, the relative viability (ChaGo-K-1; first compound 0.4 µM) was 0.689, the relative viability (ChaGo-K-1; first compound 1.265 µM) was 0.513 and the relative viability (ChaGo-K-1; first compound 4 µM) was 0.387. The relative viability (NCI-H1651; first compound 0.04 µM) was 0.795, the relative viability (NCI-H1651; first compound 0.1265 µM) was 0.784 and the relative viability (NCI-H1651; first compound 0.4 µM) was 0.701. For the same molecule, the relative viability (NCI-H1651; first compound 1.265 µM) was 0.639, the relative viability (NCI-H1651; first compound 4 µM) was 0.548 and the relative viability (NCI-H1437; first compound 0.04 µM) was 0.849. For the same molecule, the relative viability (NCI-H1437; first compound 0.1265 µM) was 0.896, the relative viability (NCI-H1437; first compound 0.4 µM) was 0.666 and the relative viability (NCI-H1437; first compound 1.265 µM) was 0.29. The relative viability (NCI-H1437; first compound 4 µM) was 0.248, the relative viability (ABC-1; first compound 0.04 µM) was 0.844 and the relative viability (ABC-1; first compound 0.1265 µM) was 1.09. For the same molecule, the relative viability (ABC-1; first compound 0.4 µM) was 0.988, the relative viability (ABC-1; first compound 1.265 µM) was 0.569 and the relative viability (ABC-1; first compound 4 µM) was 0.276. It also gave a relative viability (NCI-H1299; first compound 0.04 µM) of 0.932, a relative viability (NCI-H1299; first compound 0.1265 µM) of 0.768 and a relative viability (NCI-H1299; first compound 0.4 µM) of 0.707. For the same molecule, the relative viability (NCI-H1299; first compound 1.265 µM) was 0.352, the relative viability (NCI-H1299; first compound 4 µM) was 0.279 and the relative viability (SK-MES-1; first compound 0.04 µM) was 0.873. For the same molecule, the relative viability (SK-MES-1; first compound 0.1265 µM) was 0.77, the relative viability (SK-MES-1; first compound 0.4 µM) was 0.672 and the relative viability (SK-MES-1; first compound 1.265 µM) was 0.467. The relative viability (SK-MES-1; first compound 4 µM) was 0.295.

Reference: the supplement of paper PMC10307832
